{"source": "patent US11007178B2", "about": "“Methods and uses of Nampt activators for treatment of diabetes, cardiovascular diseases, and symptoms thereof” (University of South Florida, priority 2016, dated 2021)", "key": {"[1]": {"system": "H9C2 cardiomyoblasts", "assay": "NAD levels in H9C2 cardiomyoblasts", "assay_type": "cell-based", "settings": "H9C2, 10 μM, vs vehicle (1% DMSO) or FK866 (10 nM)", "from_the_text": "Nampt, a rate-limiting enzyme, controls the level of NAD+ and protects the heart by stimulating SIRT1. […] The data presented in this Example coupled with previous evidence of the ability of P7C3 to bind and activate Nampt unequivocally indicate that the rescue of arrythmogenic and myopathy changes noted in P7C3 treated db/db mice are in due to activation of Nampt activation, NAD elevation, and stimulation of Nampt-SIRT1 axis."}, "[2]": {"system": "pancreatic islet β-cells of diabetic mice", "assay": "Pancreatic islets and beta cells, Gomori staining", "assay_type": "in vivo", "settings": "10 mg/Kg daily, 4 weeks, vs vehicle", "experimental": "Additionally diabetic mice were treated with P7C3 for 4 weeks with daily dose of 10 mg/Kg with P7C3 or vehicle. Thereafter, the pancreas was collected at necropsy and cryosectioned, the cross sections were stained for visualizing the damage of β-cells in diabetes and rescue by P7C3. […] P<0.01. ** indicates […] between Vehicle and P7C3 groups and *** indicates P<0.001 Vehicle and P7C3 groups as determined by a one-way ANOVA followed by Tukey test."}, "[3]": {"system": "db/db mice", "assay": "ECG, cardiac electrical abnormalities", "assay_type": "in vivo", "settings": "20 week old, vs vehicle treated db/db", "experimental": "(§1) To determine the effect of the Nampt activator on blood sugar control and cardiac electrical activity in diabetics, we examined the effects of P7C3,in a diabetic mouse model (db/db mice). Briefly, wild-type or db/db mice were treated with a Nampt activator (P7C3) or control. The Nampt activator or control was administered daily via intraperitoneal (i.p.) injection at about 10 mg/kg."}, "[4]": {"system": "db/db mice", "assay": "Intra-peritoneal glucose tolerance test (IPGTT)", "assay_type": "in vivo", "settings": "10 mg/kg, 4 weeks, vs vehicle", "experimental": "The diabetic model was treated with a vehicle or P7C3 for 4 weeks. Then a glucose tolerance test was conducted.\nas §1\nAn insulin tolerance test was also performed after 4 weeks of Nampt activator treatment as previously described."}, "[5]": {"system": "db/db mice", "assay": "Serum insulin levels by ELISA", "assay_type": "in vivo", "settings": "diabetic mice, about 10 mg/kg i.p., 4 weeks, vs vehicle", "experimental": "A Nampt activator, P7C3, was administered and various effects were evaluated. […] Briefly, the dose of P7C3 was about 10 mg/kg and administered i.p. to diabetic mice and the effect on serum insulin, insulin tolerance, blood glucose, and pancreatic beta cell number and insulin granulation in the islets of a diabetic model pancreas. The serum from P7C3 or vehicle treated diabetic mice and measured the insulin levels by ELISA assay."}, "[6]": {"system": "wild-type C57 hearts", "assay": "Langendorff myocardial ischemia-reperfusion injury, wild-type hearts", "set-up": "species or system mouse", "settings": "10 μM, 45 min ischemia, 60 min reperfusion, vs vehicle", "experimental": "Following a 45 minutes of ischemia in the wild type mouse hearts we utilized P7C3 and allowed reperfusion for first 30 minutes of reperfusion period during a 60 minutes reperfusion phase. […] Red portion of the stain in FIGS. 12A and 12C can indicate viable tissue, where as white or pale colored areas are infarcted areas. Qualification for the infract size is depicted in the accompanying bar graphs in each panel. ***p<0.0001, **p<0.001, vehicle vs. P7C3 in each group."}, "[7]": {"system": "db/db mice", "assay": "Echocardiography, cardiomyopathy and cardiac performance", "assay_type": "in vivo", "from_the_text": "A similar increase (p<0.05) in pulmonary VTI was also noted in the 20 week db/db mice when compared with WT controls. […] A similar increase in M-mode short axis measurements in 20 week db/db was also noted in left ventricular internal dimension (LVID) at both systole and diastole. […] This increase in LVID is indicative of increased heart size when compared with Wt controls."}, "[8]": {"system": "db/db mice", "assay": "Blood sugar level in diabetic mouse model over 4 weeks", "assay_type": "in vivo", "settings": "10 mg/kg i.p. daily", "experimental": "as §1"}, "[9]": {"system": "pancreatic islet β-cells of diabetic mice", "assay": "Immunohistochemical staining for insulin in pancreatic beta-islets", "assay_type": "in vivo", "settings": "vs vehicle"}, "[10]": {"system": "diabetic hearts (db/db)", "assay": "Langendorff myocardial ischemia-reperfusion injury, diabetic hearts", "set-up": "species or system mice", "settings": "4 week treated diabetic hearts, 45 min ischemia, 60 min reperfusion, vs vehicle"}, "[11]": {"system": "db/db mice", "assay": "NADH/NAD ratio in diabetic model", "assay_type": "in vivo", "settings": "4 weeks treatment, vs vehicle"}, "[12]": {"system": "diabetic mice", "assay": "Insulin tolerance test (ITT)", "assay_type": "in vivo", "settings": "about 10 mg/Kg daily, 4 weeks, insulin 5 U/Kg i.v.", "experimental": "Diabetic mice were utilized and treated with P7C3 for 4 weeks with a daily dose of about 10 mg/Kg P7C3 or vehicle. Thereafter, ITT (insulin tolerance test) was performed by injecting insulin 5 U/Kg body weight i.v. Blood glucose levels were monitored as shown in FIGS. 9A-9B."}, "[13]": {"system": "Wt mouse heart", "assay": "Ex vivo lactate perfusion of heart, ventricular arrhythmia", "settings": "2 out of 5 mice, control 0%", "from_the_text": "Cardiac elevation of NADH through ex vivo lactate perfusion of Wt mouse heart increases the incidence of ventricular arrhythmia by 40% (2 out of 5 mice) (FIGS. 5A and 5B)."}, "[14]": {"settings": "diabetic mice, 4 week treatment"}}, "data": [{"compound": "NC(=O)c1ccc[n+]([C@@H]2O[C@H](COP(=O)([O-])O)[C@@H](O)[C@H]2O)c1", "note": "[NMN, nicotinamide mononucleotide, reference compound]", "values": [{"measurement": "NAD levels", "setting": "[1]", "value": "significantly (P<0.01) increases"}]}, {"compound": "OC(CNc1ccccc1)Cn1c2ccc(Br)cc2c2cc(Br)ccc21", "note": "(stereo not shown) [P7C3]", "values": [{"measurement": "beta cells per section", "setting": "[2]", "value": "significant improvement"}, {"measurement": "number of beta cells per islet", "setting": "[2]", "value": "improved"}, {"measurement": "number of pancreatic islets in a unit area of the pancreas", "setting": "[2]", "value": "improved"}, {"measurement": "QRS interval", "setting": "[3]", "value": "significantly reduced (p<0.001) back to Wt levels"}, {"measurement": "QT interval", "setting": "[3]", "value": "significantly reduced (p<0.001) back to Wt levels"}, {"measurement": "QTc interval", "setting": "[3]", "value": "significantly reduced (p<0.001) back to Wt levels"}, {"measurement": "glucose tolerance after 2 hour glucose load", "setting": "[4]", "value": "increased glucose tolerance"}, {"measurement": "insulin release after glucose load", "setting": "[4]", "value": "significantly (P<0.001) increased"}, {"measurement": "serum insulin levels", "setting": "[5]", "value": "increased"}, {"measurement": "NAD levels", "setting": "[1]", "value": "significantly (P<0.01) increases"}, {"measurement": "protection from myocardial ischemia-reperfusion injury (infarct size)", "setting": "[6]", "value": "cardioprotective effect"}, {"measurement": "cardiomyopathy", "setting": "[7]; 4 week treatment", "value": "partial rescue"}, {"measurement": "IVRT (isovolumic relaxation time)", "setting": "[7]; P7C3 treated diabetic mice", "value": "improvement in cardiac performance"}, {"measurement": "MPI (myocardial performance index)", "setting": "[7]; P7C3 treated diabetic mice", "value": "improvement in cardiac performance"}, {"measurement": "LV mass", "setting": "[7]; db/db mice", "value": "smaller increase"}, {"measurement": "aortic VTI", "setting": "[7]; db/db mice, 4-week treatment", "value": "much less of an increase"}, {"measurement": "pulmonary VTI", "setting": "[7]; db/db mice, 4-week treatment", "value": "much less of an increase"}, {"measurement": "left ventricular internal dimension (LVID)", "setting": "[7]; db/db mice, particularly at the diastole", "value": "much less increase"}, {"measurement": "% ejection fraction", "setting": "[7]; [14]", "value": "significantly (p<0.05) decreased"}, {"measurement": "% fractional shortening", "setting": "[7]; [14]", "value": "significantly (p<0.05) decreased"}, {"measurement": "net reduction in blood sugar levels", "setting": "[8]", "value": 173.2, "unit": "mg/dL"}, {"measurement": "blood sugar level", "setting": "[8]; at 4 weeks, vehicle db/db 467.5±34.2, wild type 209.8±6.1", "value": "214.5 ± 16.9", "unit": "mg/dL"}, {"measurement": "insulin positive beta-cells per islet area", "setting": "[9]", "value": "increased insulin production"}, {"measurement": "protection from myocardial ischemia-reperfusion injury (infarct size)", "setting": "[10]", "value": "cardioprotective effect"}, {"measurement": "NADH/NAD ratio", "setting": "[11]", "value": "significantly attenuated"}, {"measurement": "insulin sensitivity (insulin tolerance test, blood glucose)", "setting": "[12]", "value": "improved insulin sensitivity"}]}, {"compound": "lactate", "values": [{"measurement": "incidence of ventricular arrhythmia", "setting": "[13]", "value": 40, "unit": "%"}]}]}
